Tests used:
[1] = tested on: ACE1 (angiotensin-converting enzyme); assay: ACE inhibition measurement with ACE1 activity test kit (fluorescence); assay type: biochemical; settings: for Inhibition rate (%) of ACE1 activity, relative to captopril taken as 100%: TCM metabolite at 25 uM
[2] = target: T1, recombinant soluble C domain of ACE1 (sACE1) (Homo sapiens, UniProt P12821); assay: SPR determination of affinity between TCM metabolites and immobilized sACE1 (Biacore T200, CM5 chip); assay type: binding; settings: for Binding to sACE1 by SPR (in words): SPR assay; for Kd: SPR, sACE1 on CM5 chip, 0.39-50.0 µM metabolite, 25 °C, read-out: KD (equilibrium dissociation constant)
T1 construct: The cDNA coding for the soluble C domain of ACE1 (Ile640-Ala1231) was obtained by PCR amplification; HSA signal peptide (N); made in house; host or cells: HEK293 (transient transfection, protein purified from the culture supernatant)
T1 sequence (P12821 640-1231): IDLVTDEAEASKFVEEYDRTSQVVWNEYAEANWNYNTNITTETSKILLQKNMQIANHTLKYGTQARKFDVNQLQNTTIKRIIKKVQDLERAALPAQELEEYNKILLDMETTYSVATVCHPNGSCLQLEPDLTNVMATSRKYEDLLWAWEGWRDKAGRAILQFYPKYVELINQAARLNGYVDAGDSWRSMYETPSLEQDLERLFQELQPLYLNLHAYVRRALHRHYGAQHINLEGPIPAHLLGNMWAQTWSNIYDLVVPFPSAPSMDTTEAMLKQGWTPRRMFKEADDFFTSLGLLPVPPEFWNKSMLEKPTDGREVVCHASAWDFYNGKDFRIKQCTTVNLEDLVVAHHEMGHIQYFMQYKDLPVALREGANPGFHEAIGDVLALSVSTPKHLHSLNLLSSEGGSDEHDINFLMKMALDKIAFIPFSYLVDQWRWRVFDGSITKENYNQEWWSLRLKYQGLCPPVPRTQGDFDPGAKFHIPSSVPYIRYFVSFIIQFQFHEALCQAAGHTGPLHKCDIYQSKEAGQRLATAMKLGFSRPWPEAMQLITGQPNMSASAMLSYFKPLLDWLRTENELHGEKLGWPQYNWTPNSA

Molecule | Inhibition rate (%) of ACE1 activity ([1]; captopril (positive control) at 1 uM) [%] | Binding to sACE1 by SPR (in words) [2] | Kd [2] [µM] | Inhibition rate (%) of ACE1 activity, relative to captopril taken as 100% [1] [%] | ACE1 inhibition in vitro (in words) ([1]; enzyme activity test)
C[C@H](CS)C(=O)N1CCC[C@H]1C(=O)O [Captopril, reference compound] | 101.5 | – | – | – | –
Oc1cc(O)c2c(c1)O[C@H](c1ccc(O)c(O)c1)[C@@H](O)C2 [Cianidanol] | – | bound to sACE1 on the chip in a dose-dependent manner | 48.3 | – | –
O=c1cc(-c2ccc(O)c(O)c2)oc2cc(O)c([C@@H]3O[C@H](CO)[C@@H](O)[C@H](O)[C@H]3O)c(O)c12 [Homoorientin] | – | bound to sACE1 on the chip in a dose-dependent manner | 10.2 | – | –
O=c1c(O[C@@H]2O[C@H](CO)[C@@H](O)[C@H](O)[C@H]2O)c(-c2ccc(O)c(O)c2)oc2cc(O)cc(O)c12 [Isoquercitrin] | – | bound to sACE1 on the chip in a dose-dependent manner | 5.76 | 35.6 | –
O=c1cc(-c2ccc(O)c(O)c2)oc2c([C@@H]3O[C@H](CO)[C@@H](O)[C@H](O)[C@H]3O)c(O)cc(O)c12 [Orientin] | – | bound to sACE1 on the chip in a dose-dependent manner | 9.32 | – | –
O=c1c(-c2ccc(O)cc2)coc2c([C@@H]3O[C@H](CO)[C@@H](O)[C@H](O)[C@H]3O)c(O)ccc12 [Puerarin] | – | bound to sACE1 on the chip in a dose-dependent manner | 13.8 | – | –
O=c1c(O)c(-c2ccc(O)c(O)c2)oc2cc(O)cc(O)c12 [Quercetin] | – | bound to sACE1 on the chip in a dose-dependent manner | – | – | –
Oc1ccc(/C=C/c2cc(O)cc(O)c2)cc1 [Resveratrol] | – | – | – | – | did not inhibit ACE1 in vitro
Procyanidin | – | bound to sACE1 on the chip in a dose-dependent manner | – | 67.5 | –

From publication PMC10609061, “Detection of Various Traditional Chinese Medicinal Metabolites as Angiotensin-Converting Enzyme Inhibitors: Molecular Docking, Activity Testing, and Surface Plasmon Resonance Approaches” (Molecules, 2023)
